# Values joined by “and” are separate entries in the source; they are usually repeats but may differ in a detail not shown here. Identical values can stand only once.
# System: adult subjects with Major Depressive Disorder
# Experiment: Phase 3 open-label 1-year study: need for re-treatment (number of and time to re-treatments)
# Type: in vivo, human
# Source text: Secondary Objective: To assess the need for re-treatment with Compound (1) following initial treatment in adults with MDD currently experiencing an MDE over a 1-year period, and to assess the response of initial treatment and re-treatment(s) with Compound (1) following an initial 2-week treatment period in adults with MDD currently experiencing an MDE over a 1-year period.
# Secondary Endpoints: The need for re-treatment with Compound (1) as assessed by: time to first re-treatment (Kaplan-Meier curves), number of subjects achieving the requirements for re-treatment, number of re-treatment cycles for each subject, the response of initial treatment and/or re-treatment as assessed by: change from baseline in the 17-item Hamilton Rating Scale for Depression (HAM-D) total score at the end of each 14-day treatment (initial and/or re-treatment) period, HAM-D response at the end of each 14-day treatment (initial and/or re-treatment) period, defined as a ≥50% reduction in HAM-D score from baseline, HAM-D remission at the end of each 14-day treatment (initial and/or re-treatment) period, defined as HAM-D total score≤7, Clinical Global Impression-Improvement (CGI-I) response, defined as “much improved” or “very much improved”, at the end of each 14-day treatment (initial and/or re-treatment) period, change from baseline in Clinical Global Impression-Severity (CGI-S) score at the end of each 14-day treatment (initial and/or re-treatment) period.
# Subjects who continued in the Observation Period were monitored remotely via PHQ-9 assessment every two weeks. If PHQ-9 score was >=10 at any assessment, PHQ-9 assessment was switch to every week until the score came down below 10 or the subject was dosed with Compound (1) in a subsequent cycle, whichever was earlier. A subject was to come back to the site for HAM-D assessment within a week of PHQ-9 score >=10; if the HAM-D total score >=20 and at least 56 days had elapsed since the last dose of Compound (1), another dosing cycle of Compound (1) were to start. If any of these criteria were not met, the subject couldn't be treated with Compound (1) at that time. Without the trigger of PHQ-9>=10 the subject was to have a clinic visit every 8 weeks. A subject could have at most 5 cycles of treatment within a year. FIG. 2 is a depiction of the eligibility criteria of the study.
# The cohorts pertaining to the different doses that the subjects received were defined as following: • 50 mg cohort: This cohort includes subjects who have initiated treatment with 50 mg and received re-treatment with 50 mg only. • 30 mg cohort: This cohort includes subjects who have initiated treatment with 30 mg regardless of the dose they have received in re-treatments. • Low dose cohort: This cohort includes subjects who have initiated treatment with 30 mg and received re-treatment with 30 mg only. • Dose switch cohort: This cohort includes subjects who have received initial treatment with 30 mg and at least one subsequent re-treatment with 50 mg. • Study Period X: starts on the date of the first dose of Compound (1) in cycle X and goes up to one day prior to the first dose of the next cycle. In some embodiments, X is any number from 1 to 5. • Treatment Period X: starts on the date of the first dose of Compound (1) in cycle X and goes up to one day after the last dose in cycle X. In some embodiments, X is any number from 1 to 5. • Treatment Cycle X: starts on the date of the first dose of Compound (1) in cycle X and goes up to 14 days after the last dose in cycle X. The treatment cycles may be denoted as C1-C5. • Observation period X: starts the day after Treatment Cycle X ends and goes up to one day prior to the start of next treatment cycle. In some embodiments, X is any number from 1 to 5.
# Analysis Sets: The safety set was defined as all subjects who were administered study drug. The period-specific safety set includes subjects in the safety set who were administered study drug in the corresponding treatment cycle. […]
# [1] = 50 mg Cohort (N = 146), Examples 2-3 cut-off
# [2] = 50 mg Cohort FAS (146), one-year follow-up (Example 4)
# [3] = 50 mg Cohort, Examples 2-3 cut-off
# [4] = Cycle 3, 50 mg Cohort (FAS), 1 subject
smiles,measurement,setting,value
"C[C@@]1(O)CC[C@H]2[C@H](CC[C@@H]3[C@@H]2CC[C@]2(C)[C@@H](C(=O)Cn4cc(C#N)cn4)CC[C@@H]32)C1 [Compound (1), 1-(2-((3R,5R,8R,9R,10S,13S,14S,17S)-3-hydroxy-3,13-dimethylhexadecahydro-1H-cyclopenta[a]phenanthren-17-yl)-2-oxoethyl)-1H-pyrazole-4-carbonitrile]",Average (range) number of re-treatments per subject over 1-year follow-up,30 mg Cohort,1.2 (0-4) and 1.2
same,Average total number of treatments per subject,30 mg Cohort,2.2
same,"Dosed in at least 1 re-treatment cycle, % of eligible",30 mg Cohort (472 eligible),279 (59.1%)
same,"Qualified to be retreated in at least 1 more cycle (HAM-D total score >= 20), % of eligible",30 mg Cohort (472 eligible),305 (64.6%)
same,"FAS Subjects Dosed in C2, n (%) of FAS",30 mg Cohort Overall,279 (57.1%)
same,"FAS Subjects dosed in C3, n (%) of FAS",30 mg Cohort Overall,154 (31.5%)
same,"FAS Subjects dosed in C4, n (%) of FAS",30 mg Cohort Overall,96 (19.6%)
same,"FAS Subjects dosed in C5, n (%) of FAS",30 mg Cohort Overall,43 (8.8%)
same,"Subjects with No re-treatment (Cycle 1), n (%) of FAS",30 mg cohort (N = 489),210 (42.9%)
same,"Subjects with Only 1 re-treatment (Cycle 2), n (%) of FAS",30 mg cohort (N = 489),125 (25.6%)
same,"Subjects with Only 2 re-treatment (Cycle 3), n (%) of FAS",30 mg cohort (N = 489),58 (11.9%)
same,"Subjects with Only 3 re-treatment (Cycle 4), n (%) of FAS",30 mg cohort (N = 489),53 (10.8%)
same,"Subjects with Only 4 re-treatment (Cycle 5), n (%) of FAS",30 mg cohort (N = 489),43 (8.8%) and 43 8.8%)
same,"Dosed in at least 1 re-treatment cycle, % of eligible",50 mg Cohort (122 eligible),26 (21.3%)
same,"Qualified to be retreated in at least 1 more cycle (HAM-D total score >= 20), % of eligible",50 mg Cohort (122 eligible),36 (29.5%)
same,"Subjects with No re-treatment (Cycle 1), n (%) of FAS",[1],120 (82.2%)
same,"Subjects with Only 1 re-treatment (Cycle 2), n (%) of FAS",[1],25 (17.1%)
same,"Subjects with Only 2 re-treatment (Cycle 3), n (%) of FAS",[1],1 (0.7%)
same,Subjects who received 1 treatment course in total,[2],54.8%
same,Subjects who received 2 treatment courses in total,[2],24.7%
same,Subjects who received 3 treatment courses in total,[2],10.3%
same,Subjects who received 4 treatment courses in total,[2],6.8%
same,Subjects who received 5 treatment courses in total,[2],3.4%
same,Subjects who received at most one additional treatment cycle,[2],79.5%
same,"FAS Subjects Dosed in C2, n (%) of FAS",[3],26 (17.8%)
same,"FAS Subjects dosed in C3, n (%) of FAS",[3],1 (0.7%)
same,"Proportion with zero or at most 1 additional treatment cycle, by use of antidepressant therapy at baseline","50 mg Cohort, one-year follow-up (Example 4)",similar
same,n/N: FAS subjects eligible and dosed in Cycle X / eligible for dosing in Cycle X,"Cycle 2, 50 mg Cohort",26/122
same,"Time to re-treatment since last dose in previous cycle, Mean (SD)","Cycle 2, 50 mg Cohort (FAS)",70.5 (18.52) Days
same,"Time to re-treatment since last dose in previous cycle, Median","Cycle 2, 50 mg Cohort (FAS)",62.5 days
same,"Time to re-treatment since last dose in previous cycle, Min - Max","Cycle 2, 50 mg Cohort (FAS)",58 to 122 days
same,n/N: FAS subjects eligible and dosed in Cycle X / eligible for dosing in Cycle X,"Cycle 2, Dose Switch",80/80
same,"Time to re-treatment since last dose in previous cycle, Mean (SD)","Cycle 2, Dose Switch (FAS)",116.5 (70.26) Days
same,"Time to re-treatment since last dose in previous cycle, Median","Cycle 2, Dose Switch (FAS)",91 days
same,"Time to re-treatment since last dose in previous cycle, Min - Max","Cycle 2, Dose Switch (FAS)",58 to 318 days
same,n/N: FAS subjects eligible and dosed in Cycle X / eligible for dosing in Cycle X,"Cycle 2, Low Dose",199/392
same,"Time to re-treatment since last dose in previous cycle, Mean (SD)","Cycle 2, Low Dose (FAS)",99.5 (52.15) Days
same,"Time to re-treatment since last dose in previous cycle, Median","Cycle 2, Low Dose (FAS)",78 days
same,"Time to re-treatment since last dose in previous cycle, Min - Max","Cycle 2, Low Dose (FAS)",58 to 297 days
same,n/N: FAS subjects eligible and dosed in Cycle X / eligible for dosing in Cycle X,"Cycle 3, 50 mg Cohort",1/4
same,"Time to re-treatment since last dose in previous cycle, Mean (SD)",[4],"58 (NA) Days and 58.0 (NA), 58.0, Days"
same,"Time to re-treatment since last dose in previous cycle, Median",[4],"58 Days and 58.0 (NA), 58.0, Days"
same,"Time to re-treatment since last dose in previous cycle, Min - Max",[4],58-58 Days
same,n/N: FAS subjects eligible and dosed in Cycle X / eligible for dosing in Cycle X,"Cycle 3, Dose Switch",71/76
same,"Time to re-treatment since last dose in previous cycle, Mean (SD)","Cycle 3, Dose Switch (FAS)",92.5 (34.44) Days
same,"Time to re-treatment since last dose in previous cycle, Median","Cycle 3, Dose Switch (FAS)",79 days
same,"Time to re-treatment since last dose in previous cycle, Min - Max","Cycle 3, Dose Switch (FAS)",58 to 214 days
same,n/N: FAS subjects eligible and dosed in Cycle X / eligible for dosing in Cycle X,"Cycle 3, Low Dose",83/166
same,"Time to re-treatment since last dose in previous cycle, Mean (SD)","Cycle 3, Low Dose (FAS)",87.2 (34.97) Days
same,"Time to re-treatment since last dose in previous cycle, Median","Cycle 3, Low Dose (FAS)",72 days
same,"Time to re-treatment since last dose in previous cycle, Min - Max","Cycle 3, Low Dose (FAS)",52 to 217 days
same,n/N: FAS subjects eligible and dosed in Cycle X / eligible for dosing in Cycle X,"Cycle 4, Dose Switch",53/63
same,"Time to re-treatment since last dose in previous cycle, Mean (SD)","Cycle 4, Dose Switch (FAS)",69.9 (13.40) Days
same,"Time to re-treatment since last dose in previous cycle, Median","Cycle 4, Dose Switch (FAS)",66 days
same,"Time to re-treatment since last dose in previous cycle, Min - Max","Cycle 4, Dose Switch (FAS)",57 to 120 days
same,n/N: FAS subjects eligible and dosed in Cycle X / eligible for dosing in Cycle X,"Cycle 4, Low Dose",43/74
same,"Time to re-treatment since last dose in previous cycle, Mean (SD)","Cycle 4, Low Dose (FAS)",72.1 (17.67) Days
same,"Time to re-treatment since last dose in previous cycle, Median","Cycle 4, Low Dose (FAS)",65 days
same,"Time to re-treatment since last dose in previous cycle, Min - Max","Cycle 4, Low Dose (FAS)",57 to 113 days
same,n/N: FAS subjects eligible and dosed in Cycle X / eligible for dosing in Cycle X,"Cycle 5, Dose Switch",23/45
same,"Time to re-treatment since last dose in previous cycle, Mean (SD)","Cycle 5, Dose Switch (FAS)",61.4 (6.24) Days
